In publication PMC10388362, “Fluorescent Ligands Enable Target Engagement Studies for the Intracellular Allosteric Binding Site of the Chemokine Receptor CXCR2” (Journal of Medicinal Chemistry, 2023):
Several values for one entry are separate records, joined by “and”; a condition that tells them apart may be missing. Equal entries are not always repeated.

Target: T1, CXCR2 (Homo sapiens, UniProt P25025)
T1 construct: Promega pNLF1-C (Nluc) #CXCR20TN00; host or cells: HEK293T, transient transfection (PEI)
T1 sequence (P25025 1-360): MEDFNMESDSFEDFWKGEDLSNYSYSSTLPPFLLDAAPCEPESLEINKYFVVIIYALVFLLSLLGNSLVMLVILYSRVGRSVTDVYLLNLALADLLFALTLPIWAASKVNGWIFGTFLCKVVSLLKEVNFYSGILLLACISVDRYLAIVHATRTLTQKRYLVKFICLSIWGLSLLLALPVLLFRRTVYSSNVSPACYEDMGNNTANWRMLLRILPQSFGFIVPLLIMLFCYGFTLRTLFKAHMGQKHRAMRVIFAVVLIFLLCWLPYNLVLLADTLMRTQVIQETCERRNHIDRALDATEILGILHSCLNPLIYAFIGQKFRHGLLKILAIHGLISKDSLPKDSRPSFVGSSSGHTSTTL
Assay: Membrane-based NanoBRET association and dissociation kinetic assay
Format: binding
Protocol: 5 μL of a solution of the fluorescent ligand (9a) diluted to varying concentrations (final assay concentrations: 10–100 nM) in the assay buffer and 5 μL of the assay buffer were transferred to a 384-well plate. For the determination of nonspecific binding, we added a solution of a nonlabeled competitor dissolved in the assay buffer (3, final assay concentration: 10 μM) instead. After the addition of 5 μL of a furimazine solution (final assay dilution: 1:350 in assay buffer), plates were incubated for 3 min in the dark at ambient temperature. Subsequently, 20 μL of the membrane preparation (2 μg total protein/well) was added (final assay volume: 35 μL). BRET ratios were measured with a CLARIOstar microplate reader using 620/10 and 475/30 nm emission filters over time at ambient temperature or 37 °C. The obtained data were analyzed using the association kinetics (one ligand concentration) algorithm in PRISM9.5 (GraphPad) to determine association kinetics using a predetermined koff as a constraint.
5 μL of a solution of the fluorescent ligand (9a) diluted to varying concentrations (final assay concentrations: 10–100 nM) in the assay buffer and 5 μL of the assay buffer were transferred to a 384-well plate. In order to determine nonspecific binding, we added a solution of a nonlabeled competitor dissolved in the assay buffer (3, final assay concentration: 10 μM) instead of the 5 μL of the assay buffer. Then, 20 μL of the membrane preparation (2 μg total protein/well) was added, and plates were incubated for 4 h at ambient temperature in the dark. Subsequently, 5 μL of a vivazine solution (final assay dilution: 1:350 in assay buffer) was added. Plates were incubated for further 60 min in the dark at ambient temperature. Thereafter, 1 μL of a solution of a […] competitor dissolved in the assay buffer (3, final assay concentration: 10 μM) was added. For control experiments, we added 1 μL of the assay buffer instead of the competitor solution. BRET ratios were measured with a CLARIOstar microplate reader using 620/10 and 475/30 nm emission filters over time at ambient temperature or 37 °C. Specific BRET ratios were calculated as a difference of total and nonspecific binding. The obtained data were analyzed using the dissociation—one phase exponential decay algorithm in PRISM9.5 (GraphPad) to determine dissociation kinetics.

[1] = CXCR2_Nluc membranes, 37 °C, mean
[2] = CXCR2_Nluc membranes, room temperature, mean
[3] = membranes, 37 °C, 9a 10 nM, single determinations
[4] = membranes, 37 °C, 9a 10 nM, single determinations, koff fixed 0.00569 min-1
[5] = membranes, 37 °C, 9a 25 nM, single determinations
[6] = membranes, 37 °C, 9a 25 nM, single determinations, koff fixed 0.00569 min-1
[7] = membranes, 37 °C, 9a 50 nM, single determinations
[8] = membranes, 37 °C, 9a 50 nM, single determinations, koff fixed 0.00569 min-1
[9] = membranes, 37 °C, 9a 100 nM, single determinations
[10] = membranes, 37 °C, 9a 100 nM, single determinations, koff fixed 0.00569 min-1
[11] = membranes, room temperature, 9a 10 nM, single determinations
[12] = membranes, room temperature, 9a 25 nM, single determinations
[13] = membranes, room temperature, 9a 50 nM, single determinations
[14] = membranes, room temperature, 9a 100 nM, single determinations

## Cc1ccc([C@H](Nc2c(Nc3cccc(C(=O)NCc4cn(CCOCCOCCOCCNC(=O)c5ccc(C(=O)[O-])c(-c6c7ccc(=[N+](C)C)cc-7oc7cc(N(C)C)ccc67)c5)nn4)c3O)c(=O)c2=O)C(C)(C)C)o1 [9a, (R)-4-((2-(2-(2-(2-(4-((3-((2-((2,2-Dimethyl-1-(5-methylfuran-2-yl)propyl)amino)-3,4-dioxocyclobut-1-en-1-yl)amino)-2-hydroxybenzamido)methyl)-1H-1,2,3-triazol-1-yl)ethoxy)ethoxy)ethoxy)ethyl)carbamoyl)-2-(6-(dimethylamino)-3-(dimethyliminio)-3H-xanthen-9-yl)benzoate]
[1]
  koff: 9.48e-05 s⁻¹
  kon: 32600 M⁻¹ s⁻¹
  tR: 178.8 min
CXCR2_Nluc membranes, cell-free, 37 °C
  Kd: 2.91 ± 0.27 nM
CXCR2_Nluc membranes, room temperature
  Kd: 1.94 ± 0.27 nM
[2]
  koff: 3.57e-05 s⁻¹
  kon: 18300 M⁻¹ s⁻¹
  residence time tr: 485.6 min
CXCR2_Nluc membranes, room temperature, mean, read-out: residence time tr
  residence time: 486 ± 28 min
[3]
  koff: 8.83e-05 s⁻¹
  koff [min-1]: 0.00567 min⁻¹ and 0.00464 min⁻¹
  tR: 188.6 min and 176.4 min and 215.5 min
[4]
  kon: 42500 M⁻¹ s⁻¹
  kon [M-1 min-1]: 52685.82 M⁻¹ s⁻¹ and 46570.12 M⁻¹ s⁻¹
[5]
  koff: 0.000102 s⁻¹
  koff [min-1]: 0.00658 min⁻¹ and 0.00473 min⁻¹
  tR: 162.5 min and 152.0 min and 211.3 min
[6]
  kon: 29600 M⁻¹ s⁻¹
  kon [M-1 min-1]: 40515.73 M⁻¹ s⁻¹ and 31065.33 M⁻¹ s⁻¹
[7]
  koff: 9.33e-05 s⁻¹
  koff [min-1]: 0.0059 min⁻¹ and 0.00531 min⁻¹
  tR: 178.6 min and 169.4 min and 188.3 min
[8]
  kon: 26700 M⁻¹ s⁻¹
  kon [M-1 min-1]: 29466.47 M⁻¹ s⁻¹ and 24036.28 M⁻¹ s⁻¹
[9]
  koff: 0.000105 s⁻¹
  koff [min-1]: 0.00726 min⁻¹ and 0.00487 min⁻¹
  tR: 159.6 min and 137.7 min and 205.4 min
[10]
  kon: 23300 M⁻¹ s⁻¹
  kon [M-1 min-1]: 25508.45 M⁻¹ s⁻¹ and 19799.72 M⁻¹ s⁻¹
[11]
  koff: 3.12e-05 s⁻¹
  koff [min-1]: 0.00183 min⁻¹ and 0.00215 min⁻¹
  tR: 534.2 min and 545.6 min and 464.7 min
[12]
  koff: 2.9e-05 s⁻¹
  koff [min-1]: 0.00253 min⁻¹ and 0.00232 min⁻¹
  tR: 575.7 min and 394.8 min and 431.4 min
[13]
  koff: 2.68e-05 s⁻¹
  koff [min-1]: 0.00305 min⁻¹ and 0.00242 min⁻¹
  tR: 619.6 min and 328.4 min and 413.1 min
[14]
  koff: 2.58e-05 s⁻¹
  koff [min-1]: 0.00219 min⁻¹ and 0.00238 min⁻¹
  tR: 643.1 min and 457.0 min and 420.0 min
